Broadly, the IC50 is the point on the concentration scale where inhibition reaches its midpoint.

One assay concerns the target T1, FAAH (Homo sapiens, UniProt O00519).
T1 sequence (O00519 1-579): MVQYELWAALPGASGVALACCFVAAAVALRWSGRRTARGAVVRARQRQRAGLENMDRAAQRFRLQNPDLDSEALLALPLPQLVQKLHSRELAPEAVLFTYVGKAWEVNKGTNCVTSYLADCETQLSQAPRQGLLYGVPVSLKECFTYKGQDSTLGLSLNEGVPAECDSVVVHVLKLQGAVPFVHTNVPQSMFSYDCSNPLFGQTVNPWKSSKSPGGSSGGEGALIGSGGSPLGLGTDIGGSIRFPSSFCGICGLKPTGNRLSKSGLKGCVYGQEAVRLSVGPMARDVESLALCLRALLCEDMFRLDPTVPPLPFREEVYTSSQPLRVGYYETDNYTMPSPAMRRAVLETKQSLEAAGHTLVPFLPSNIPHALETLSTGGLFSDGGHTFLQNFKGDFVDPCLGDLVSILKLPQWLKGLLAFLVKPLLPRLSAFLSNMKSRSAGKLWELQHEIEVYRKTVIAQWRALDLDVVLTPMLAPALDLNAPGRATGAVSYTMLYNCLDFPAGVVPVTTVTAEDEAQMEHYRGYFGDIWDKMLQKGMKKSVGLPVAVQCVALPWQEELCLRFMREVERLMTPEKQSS
The assay is described as follows: Assay Method 1: FAAH assay, 3H-anandamide hydrolysis in homogenate of T84 cells or SK-N-MC cells transfected with human FAAH. Format: biochemical. Conditions: average of results, > = solubility limit or highest concentration tested. The essentials:
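Homogenates of T84 cells or of SK-N-MC cells stably transfected with human FAAH (G418-selected) were prepared in pH 9 Tris/EDTA/glycerol/Triton buffer. They were incubated with compound and 80 nM final ^3H-anandamide for 1 h at rt. Released ^3H-ethanolamine was separated on activated charcoal and counted by scintillation.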

The next assay deals with T2, rat FAAH (Rattus norvegicus, UniProt P97612).
T2 sequence (P97612 1-579): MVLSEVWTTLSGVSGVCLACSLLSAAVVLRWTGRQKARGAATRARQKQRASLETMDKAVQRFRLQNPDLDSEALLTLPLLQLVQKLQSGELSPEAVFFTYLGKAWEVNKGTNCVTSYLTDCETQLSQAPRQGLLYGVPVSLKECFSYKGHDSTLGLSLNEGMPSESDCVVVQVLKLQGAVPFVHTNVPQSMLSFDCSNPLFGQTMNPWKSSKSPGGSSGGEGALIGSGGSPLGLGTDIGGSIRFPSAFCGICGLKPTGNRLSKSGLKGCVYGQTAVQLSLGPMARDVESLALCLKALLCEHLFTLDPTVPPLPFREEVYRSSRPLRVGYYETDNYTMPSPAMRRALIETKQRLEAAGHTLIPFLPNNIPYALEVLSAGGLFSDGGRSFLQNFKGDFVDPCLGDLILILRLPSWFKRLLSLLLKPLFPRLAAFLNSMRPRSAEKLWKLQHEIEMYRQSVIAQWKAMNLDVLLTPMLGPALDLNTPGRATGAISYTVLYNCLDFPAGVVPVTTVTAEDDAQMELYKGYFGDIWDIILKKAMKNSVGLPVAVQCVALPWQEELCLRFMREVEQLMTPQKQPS
Description: Assay Method 2: FAAH assay, 3H-anandamide hydrolysis in homogenate of SK-N-MC cells transfected with rat FAAH. In kind it is biochemical. Conditions: average of results, > = solubility limit or highest concentration tested. An outline of the steps:
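Homogenate of SK-N-MC cells stably transfected with rat FAAH cDNA (G418-selected clones) in pH 9 Tris/EDTA/glycerol/Triton buffer. Incubated with compound and 80 nM final [3H]-anandamide for 1 h at rt. Released [3H]-ethanolamine separated from substrate on activated charcoal filters and counted by scintillation.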

Counter-ions that a name gives are not always drawn. Some results are limits rather than exact numbers.

Take `O=C(Nc1cccnn1)N1CCN(Cc2ccc3ccccc3n2)CC1` [Example 198, N-Pyridazin-3-yl-4-(quinolin-2-ylmethyl)piperazine-1-carboxamide]: the IC50 against FAAH worked out at 390 nM; at rat FAAH, 6000 nM.
The like results for `O=C(Nc1cccnn1)N1CCN(Cc2ccc(Cl)c(Cl)c2)CC1` [Example 199, 4-(3,4-Dichlorobenzyl)-N-pyridazin-3-ylpiperazine-1-carboxamide] were, in that order, 280 nM and 590 nM.
The like results for `O=C(Nc1cccnn1)N1CCN(Cc2ccc3ccccc3c2)CC1` [Example 200, 4-(Naphthalen-2-ylmethyl)-N-pyridazin-3-ylpiperazine-1-carboxamide] were, in that order, 38 nM and 500 nM.
Regarding `O=C(Nc1cccnn1)N1CCN(Cc2ccc3[nH]ccc3c2)CC1` [Example 201, 4-(1H-Indol-5-ylmethyl)-N-pyridazin-3-ylpiperazine-1-carboxamide], the IC50 against FAAH and against rat FAAH was more than 10000 nM in each case.
Turning to `O=C(Nc1cccc2nsnc12)N1CCN(Cc2cccc(C#Cc3ccccc3)c2)CC1` [Example 202, N-2,1,3-Benzothiadiazol-4-yl-4-{[3-(phenylethynyl)phenyl]methyl}-piperazine-1-carboxamide], the IC50 came out at 45 nM at FAAH and 85 nM against rat FAAH.
Regarding `O=C(Nc1cccc2nonc12)N1CCN(Cc2cccc(C#Cc3ccccc3)c2)CC1` [Example 203, N-2,1,3-Benzoxadiazol-4-yl-4-{[3-(phenylethynyl)phenyl]methyl}-piperazine-1-carboxamide], the 50% inhibitory concentration (IC50) on FAAH was 210 nM; at rat FAAH, 350 nM.
The like results for `O=C(Nc1noc2ccccc12)N1CCN(Cc2cccc(Oc3ccc(C(F)(F)F)c(Cl)c3)c2)CC1` [Example 204, 4-[3-(3-Chloro-4-trifluoromethyl-phenoxy)-benzyl]-piperazine-1-carboxylic acid benzo[d]isoxazol-3-ylamide trifluoroacetic acid salt] were, in that order, 14 nM and 32 nM.
The matching figures for `O=C(Nc1noc2ccccc12)N1CCN(Cc2cccc(Oc3ccc(Cl)c(C(F)(F)F)c3)c2)CC1` [Example 205, 4-[3-(4-Chloro-3-trifluoromethyl-phenoxy)-benzyl]-piperazine-1-carboxylic acid benzo[d]isoxazol-3-ylamide trifluoroacetic acid salt]: 106 nM and 225 nM.
Consider `O=C(Nc1noc2ccccc12)N1CCN(Cc2cccc(Oc3ccc(Cl)c(F)c3)c2)CC1` [Example 206, 4-[3-(4-Chloro-3-fluoro-phenoxy)-benzyl]-piperazine-1-carboxylic acid benzo[d]isoxazol-3-ylamide], for which the IC50 is 11 nM at FAAH and 21 nM against rat FAAH.
The matching figures for `O=C(Nc1noc2ccccc12)N1CCN(Cc2cccc(Oc3ccc(F)c(Cl)c3)c2)CC1` [Example 207, 4-[3-(3-Chloro-4-fluoro-phenoxy)-benzyl]-piperazine-1-carboxylic acid benzo[d]isoxazol-3-ylamide]: 34 nM and 46 nM.
Consider `O=C(Nc1noc2ccccc12)N1CCN(Cc2cccc(Oc3ccc(F)cc3)c2)CC1` [Example 208, 4-[3-(4-Fluoro-phenoxy)-benzyl]-piperazine-1-carboxylic acid benzo[d]isoxazol-3-ylamide], for which the IC50 at FAAH is 21 nM; against rat FAAH, 17 nM.
The like results for `CCCCc1ccc(Oc2cccc(CN3CCN(C(=O)Nc4noc5ccccc45)CC3)c2)cc1` [Example 209, 4-[3-(4-Butyl-phenoxy)-benzyl]-piperazine-1-carboxylic acid benzo[d]isoxazol-3-ylamide] were, in that order, 9 nM and 2 nM.
The like results for `O=C(Nc1cnccn1)N1CCN(Cc2ccc3c(c2)OC(F)(F)O3)CC1` [Example 210, 4-[(2,2-Difluoro-1,3-benzodioxol-5-yl)methyl]-N-pyrazin-2-ylpiperazine-1-carboxamide] were, in that order, 1750 nM and 1160 nM.
The like results for `O=C(Nc1cnccn1)N1CCN(Cc2ccc3c(c2)OCO3)CC1` [Example 211, 4-(1,3-Benzodioxol-5-ylmethyl)-N-pyrazin-2-ylpiperazine-1-carboxamide] were, in that order, 3000 nM and more than 10000 nM.
Regarding `O=C(Nc1cnccn1)N1CCN(Cc2ccc(Br)cc2)CC1` [Example 212, 4-(4-Bromobenzyl)-N-pyrazin-2-ylpiperazine-1-carboxamide], the figures for the IC50 on FAAH and against rat FAAH were 500 nM and 8000 nM, respectively.
`O=C(Nc1cnccn1)N1CCN(Cc2ccc3ccccc3c2)CC1` [Example 213, 4-(Naphthalen-2-ylmethyl)-N-pyrazin-2-ylpiperazine-1-carboxamide]: the IC50 against FAAH turned out to be 100 nM; against rat FAAH, 320 nM.
Consider `O=C(Nc1cnccn1)N1CCN(Cc2cccc(Oc3ccc(OCC(F)(F)F)cc3)c2)CC1` [Example 214, N-Pyrazin-2-yl-4-{3-[4-(2,2,2-trifluoroethoxy)phenoxy]benzyl}-piperazine-1-carboxamide], for which the IC50 on FAAH was 15 nM; at rat FAAH, 90 nM.
The matching figures for `O=C(Nc1cnccn1)N1CCN(Cc2cccc(Oc3ccc(C(F)(F)F)cc3)c2)CC1` [Example 215, N-Pyrazin-2-yl-4-{3-[4-(trifluoromethyl)phenoxy]benzyl}piperazine-1-carboxamide]: 1 nM and 30 nM.
Turning to `O=C(Nc1cnccn1)N1CCN(Cc2ccc3[nH]ccc3c2)CC1` [Example 216, 4-(1H-Indol-5-ylmethyl)-N-pyrazin-2-ylpiperazine-1-carboxamide], the IC50 against FAAH and on rat FAAH was more than 10000 nM throughout.
`O=C(Nc1cnccn1)N1CCN(Cc2ccc(Br)c(Br)c2)CC1` [Example 217, 4-(3,4-Dibromobenzyl)-N-pyrazin-2-ylpiperazine-1-carboxamide]: the results for the IC50 against FAAH and against rat FAAH were 150 nM and 250 nM, respectively.
`O=C(Nc1cnccn1)N1CCN(Cc2cc3ccccc3s2)CC1` [Example 218, 4-(1-Benzothiophen-2-ylmethyl)-N-pyrazin-2-ylpiperazine-1-carboxamide]: the concentration for half-maximal inhibition (IC50) against FAAH is 170 nM; against rat FAAH, 700 nM.
The like results for `O=C(Nc1cnccn1)N1CCN(Cc2ccc(Cl)c(Cl)c2)CC1` [Example 220, 4-(3,4-Dichlorobenzyl)-N-pyrazin-2-ylpiperazine-1-carboxamide] were, in that order, 320 nM and 430 nM.
The matching figures for `O=C(Nc1cnccn1)N1CCN(Cc2cccc(Oc3ccc(Br)cc3)c2)CC1` [Example 221, 4-[3-(4-Bromophenoxy)benzyl]-N-pyrazin-2-ylpiperazine-1-carboxamide]: 3 nM and 50 nM.
Consider `O=C(Nc1cnccn1)N1CCN(Cc2ccc(Br)c(F)c2)CC1` [Example 222, 4-(4-Bromo-3-fluorobenzyl)-N-pyrazin-2-ylpiperazine-1-carboxamide], for which the IC50 against FAAH came out at 700 nM; at rat FAAH, 600 nM.
The like results for `O=C(Nc1cnccn1)N1CCN(Cc2cnc3ccccc3c2)CC1` [Example 224, N-Pyrazin-2-yl-4-(quinolin-3-ylmethyl)piperazine-1-carboxamide] were, in that order, 4000 nM and more than 10000 nM.
The like results for `O=C(Nc1cnccn1)N1CCN(Cc2cccc(Oc3cccc(Cl)c3)c2)CC1` [Example 225, 4-[3-(3-Chlorophenoxy)benzyl]-N-pyrazin-2-ylpiperazine-1-carboxamide] were, in that order, 43 nM and 535 nM.
The matching figures for `O=C(Nc1cnccn1)N1CCN(Cc2cccc(Oc3ccc(S(=O)(=O)C(F)(F)F)cc3)c2)CC1` [Example 226, N-Pyrazin-2-yl-4-(3-{4-[(trifluoromethyl)sulfonyl]phenoxy}benzyl)-piperazine-1-carboxamide]: 6 nM and 40 nM.
